Reference: PubChem BioAssay AID2060901 (Molecular Pharmacology Branch, DTP, NCI, 2025)

System: 422866-222-R5-J1-PDC complex spheroids viability
Assay: Anticancer human tumor 422866-222-R5-J1-PDC patient-derived pancreatic adenocarcinoma cell line growth inhibition [RAS]
Settings: for IC50: curve of first compound; for viability, T/C: stronger effect = lower value
How it was run: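 Agents were tested in combination matrices in half-log decrements from a top concentration at or near clinical Cmax (10 microM if undetermined). Targets were multi-cell spheroids of tumour lines plus HUVEC and MSC stromal cells.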
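Note: spheroids exposed to compounds for 7 days.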
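Throughout, for viability, T/C: 100% = DMSO vehicle control viability.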

SMILES: Cc1nc(N2CCC3(CC2)COC(C)C3N)c(CO)nc1Sc1ccnc(N)c1Cl (centres undefined) + C=CC(=O)N1CCN(c2nc(OCC3CCCN3C)nc3c(F)c(-c4nc(N)cc(C)c4C(F)(F)F)c(Cl)cc23)C(C)C1
- IC50 (second compound 0.00316 µM): < 31.6 nM
- IC50 (second compound 0.01 µM): < 31.6 nM
- IC50 (second compound 0.0316 µM): < 31.6 nM
- IC50 (second compound 0.1 µM): < 31.6 nM
- IC50 (second compound 0.316 µM): < 31.6 nM
- IC50 (second compound 1 µM): < 31.6 nM
- viability, T/C (second compound 0.00316 µM, first compound 0.0316 µM): 24.8%
- viability, T/C (second compound 0.00316 µM, first compound 0.1 µM): 21.8%
- viability, T/C (second compound 0.00316 µM, first compound 0.316 µM): 17.4%
- viability, T/C (second compound 0.00316 µM, first compound 1 µM): 15%
- viability, T/C (second compound 0.00316 µM, first compound 3.16 µM): 15.1%
- viability, T/C (second compound 0.00316 µM, first compound 10 µM): 14.8%
- viability, T/C (second compound 0.01 µM, first compound 0.0316 µM): 30.3%
- viability, T/C (second compound 0.01 µM, first compound 0.1 µM): 19.8%
- viability, T/C (second compound 0.01 µM, first compound 0.316 µM): 25%
- viability, T/C (second compound 0.01 µM, first compound 1 µM): 15.4%
- viability, T/C (second compound 0.01 µM, first compound 3.16 µM): 14.8%
- viability, T/C (second compound 0.01 µM, first compound 10 µM): 14.2%
- viability, T/C (second compound 0.0316 µM, first compound 0.0316 µM): 21.1%
- viability, T/C (second compound 0.0316 µM, first compound 0.1 µM): 19.3%
- viability, T/C (second compound 0.0316 µM, first compound 0.316 µM): 13.8%
- viability, T/C (second compound 0.0316 µM, first compound 1 µM): 13.8%
- viability, T/C (second compound 0.0316 µM, first compound 3.16 µM): 15.8%
- viability, T/C (second compound 0.0316 µM, first compound 10 µM): 17.7%
- viability, T/C (second compound 0.1 µM, first compound 0.0316 µM): 20%
- viability, T/C (second compound 0.1 µM, first compound 0.1 µM): 15.1%
- viability, T/C (second compound 0.1 µM, first compound 0.316 µM): 15.7%
- viability, T/C (second compound 0.1 µM, first compound 1 µM): 13.2%
- viability, T/C (second compound 0.1 µM, first compound 3.16 µM): 17.5%
- viability, T/C (second compound 0.1 µM, first compound 10 µM): 14.4%
- viability, T/C (second compound 0.316 µM, first compound 0.0316 µM): 15.9%
- viability, T/C (second compound 0.316 µM, first compound 0.1 µM): 16.4%
- viability, T/C (second compound 0.316 µM, first compound 0.316 µM): 16%
- viability, T/C (second compound 0.316 µM, first compound 1 µM): 13.4%
- viability, T/C (second compound 0.316 µM, first compound 3.16 µM): 17.7%
- viability, T/C (second compound 0.316 µM, first compound 10 µM): 17.8%
- viability, T/C (second compound 1 µM, first compound 0.0316 µM): 21.5%
- viability, T/C (second compound 1 µM, first compound 0.1 µM): 15.2%
- viability, T/C (second compound 1 µM, first compound 0.316 µM): 19.2%
- viability, T/C (second compound 1 µM, first compound 1 µM): 15.1%
- viability, T/C (second compound 1 µM, first compound 3.16 µM): 15.9%
- viability, T/C (second compound 1 µM, first compound 10 µM): 18.9%

SMILES: C=CC(=O)N1CCN(c2nc(OCC3CCCN3C)nc3c(F)c(-c4nc(N)cc(C)c4C(F)(F)F)c(Cl)cc23)C(C)C1 (centres undefined) + CCn1c(-c2cc(N3CCN(C)CC3)cnc2C(C)OC)c2c3cc(ccc31)-c1csc(n1)CC(NC(=O)C1CC1C)C(=O)N1CCCC(N1)C(=O)OCC(C)(C)C2
- IC50 (second compound 0.000949 µM): < 3.16 nM
- IC50 (second compound 0.003 µM): < 3.16 nM
- IC50 (second compound 0.00949 µM): < 3.16 nM
- IC50 (second compound 0.03 µM): < 3.16 nM
- IC50 (second compound 0.0949 µM): < 3.16 nM
- IC50 (second compound 0.3 µM): < 3.16 nM
- viability, T/C (second compound 0.000949 µM, first compound 0.00316 µM): 19.5%
- viability, T/C (second compound 0.000949 µM, first compound 0.01 µM): 18.6%
- viability, T/C (second compound 0.000949 µM, first compound 0.0316 µM): 16.9%
- viability, T/C (second compound 0.000949 µM, first compound 0.1 µM): 18.5%
- viability, T/C (second compound 0.000949 µM, first compound 0.316 µM): 15.8%
- viability, T/C (second compound 0.000949 µM, first compound 1 µM): 20.3%
- viability, T/C (second compound 0.003 µM, first compound 0.00316 µM): 19.6%
- viability, T/C (second compound 0.003 µM, first compound 0.01 µM): 15%
- viability, T/C (second compound 0.003 µM, first compound 0.0316 µM): 19.8%
- viability, T/C (second compound 0.003 µM, first compound 0.1 µM): 18.2%
- viability, T/C (second compound 0.003 µM, first compound 0.316 µM): 17.9%
- viability, T/C (second compound 0.003 µM, first compound 1 µM): 20.6%
- viability, T/C (second compound 0.00949 µM, first compound 0.00316 µM): 18.3%
- viability, T/C (second compound 0.00949 µM, first compound 0.01 µM): 19.1%
- viability, T/C (second compound 0.00949 µM, first compound 0.0316 µM): 17.4%
- viability, T/C (second compound 0.00949 µM, first compound 0.1 µM): 14.8%
- viability, T/C (second compound 0.00949 µM, first compound 0.316 µM): 17.7%
- viability, T/C (second compound 0.00949 µM, first compound 1 µM): 18%
- viability, T/C (second compound 0.03 µM, first compound 0.00316 µM): 17.1%
- viability, T/C (second compound 0.03 µM, first compound 0.01 µM): 15.9%
- viability, T/C (second compound 0.03 µM, first compound 0.0316 µM): 15.7%
- viability, T/C (second compound 0.03 µM, first compound 0.1 µM): 17.9%
- viability, T/C (second compound 0.03 µM, first compound 0.316 µM): 18.2%
- viability, T/C (second compound 0.03 µM, first compound 1 µM): 22.9%
- viability, T/C (second compound 0.0949 µM, first compound 0.00316 µM): 19.4%
- viability, T/C (second compound 0.0949 µM, first compound 0.01 µM): 16.9%
- viability, T/C (second compound 0.0949 µM, first compound 0.0316 µM): 15.9%
- viability, T/C (second compound 0.0949 µM, first compound 0.1 µM): 19%
- viability, T/C (second compound 0.0949 µM, first compound 0.316 µM): 21.3%
- viability, T/C (second compound 0.0949 µM, first compound 1 µM): 21.5%
- viability, T/C (second compound 0.3 µM, first compound 0.00316 µM): 19.5%
- viability, T/C (second compound 0.3 µM, first compound 0.01 µM): 22.9%
- viability, T/C (second compound 0.3 µM, first compound 0.0316 µM): 21.7%
- viability, T/C (second compound 0.3 µM, first compound 0.1 µM): 20.2%
- viability, T/C (second compound 0.3 µM, first compound 0.316 µM): 19.5%
- viability, T/C (second compound 0.3 µM, first compound 1 µM): 24.9%
